Values after ≈ are worked out from the molar mass of the structure shown.
Tests used:
SNU1 = experiment: In vitro cytotoxic activity against SNU-1(stomach cancer cell) by using SRB assay after 72 hr of drug exposure; assay type: functional, cell-based; settings: Homo sapiens, SNU1, 72 h
SNU-354 = experiment: In vitro cytotoxic activity against SNU-354(liver cancer cell) by using SRB assay after 72 hr of drug exposure; assay type: functional, cell-based; settings: Homo sapiens, SNU-354, 72 h
[1] = Resistance index expressed as the ratio of IC50 of resistant cell line (MCF-7/R) to IC50 of sensitive cell line (MCF-7); assay type: functional
MCF7 [2] = experiment: In vitro cytotoxic activity against subline resistant to doxorubicin (MCF-7/R) by using SRB assay after 72 hr of drug exposure; assay type: functional, cell-based; settings: Homo sapiens, MCF7, 72 h
MCF7 [3] = experiment: In vitro cytotoxic activity against human breast cancer cells (MCF-7) by using SRB assay after 72 hr of drug exposure; assay type: functional, cell-based; settings: MCF7, 72 h

SMILES | IC50 (SNU1) | IC50 (SNU-354) | Resistance index [1] | IC50 (MCF7 [2]) | IC50 (MCF7 [3])
COc1cccc2c1C(=O)c1c(O)c3c(c(O)c1C2=O)C[C@@](O)(C(=O)CO)C[C@@H]3O[C@H]1C[C@H](N)[C@H](O)[C@H](C)O1 [DOXORUBICIN] | 0.27 mg/L (≈ 0.497 µM) | 0.54 mg/L (≈ 0.994 µM) |  |  | 
O=C1c2ccccc2C(=O)c2ncc(CO)cc21 | 8.1 mg/L (≈ 33.9 µM) | 4.5 mg/L (≈ 18.8 µM) | 2.7 | 17.7 mg/L (≈ 74.1 µM) | 6.66 mg/L (≈ 27.8 µM)
CC(C)NC(=O)OCc1cnc2c(c1)C(=O)c1ccccc1C2=O | > 20 mg/L | > 20 mg/L |  | > 100 mg/L | > 100 mg/L
CC(=O)OCc1cnc2c(c1)C(=O)c1ccccc1C2=O | 8.4 mg/L (≈ 29.9 µM) | 11.8 mg/L (≈ 42 µM) | 7.4 | 49.9 mg/L (≈ 177 µM) | 6.7 mg/L (≈ 23.8 µM)
O=C1c2ccccc2C(=O)c2ncc(CBr)cc21 | 0.56 mg/L (≈ 1.85 µM) | 0.89 mg/L (≈ 2.95 µM) | 1.2 | 3.08 mg/L (≈ 10.2 µM) | 2.49 mg/L (≈ 8.24 µM)
O=C(Nc1ccccc1)OCc1cnc2c(c1)C(=O)c1ccccc1C2=O | 14.9 mg/L (≈ 41.6 µM) | 15.2 mg/L (≈ 42.4 µM) | 12.5 | 57.3 mg/L (≈ 160 µM) | 4.58 mg/L (≈ 12.8 µM)
Cc1cnc2c(c1)C(=O)c1ccccc1C2=O | 13.9 mg/L (≈ 62.3 µM) | > 20 mg/L | 3.8 | 69.1 mg/L (≈ 309 µM) | 18.3 mg/L (≈ 82.1 µM)
